# Data taken from patent US12377092B2, “Polycomb inhibitors and uses thereof” (FONDAZIONE ISTITUTO FIRC DI ONCOLOGIA MOLECOLARE (IFOM), priority 2017, dated 2025).
# Entries after “also recorded” stand apart in the source; their conditions may differ. Read-outs that look alike come from different tables or passages of the source.
# What was measured:
# Type in all cases: cell-based, mouse
# [1] = test system: EndMT markers (Klf4, Sca1 and Fsp1); experiment: Western blot analysis of EndMT markers, wild type and CCM3 knock out immortalized lung endothelial cells; settings: 72 hours
# Experimental: (§1) Cells were seeded 6.3×10^4 cells/cm^2. The day after, PTC209 and UNC1999 were added to the confluent cells. Drugs were left for one or three days depending on the aim of the experiment. Final concentrations used for the two drugs were: 1 uM PTC209 and 5 uM UNC1999.
# (§2) Confluent cells were lysed with boiling modified Laemi sample Buffer (2% SDS, 20% glycerol, and 125 mM Tris-HCl, pH 6.8). Lysates were incubated for 10 minutes at 100° C. to allow proteins denaturation. Protein concentration was estimated using the BCA Protein Assay Kit (Pierce). Equal amount of proteins was loaded on a gel, separated by SDS-PAGE and transferred to a Protran Nitrocellulose Membrane (Whatman) 0.2 um pores. The membranes were blocked for 1 hour at RT in Tris Buffered Saline (TBS: NaCl 150 mM, Tris-HCl 10 mM pH 7.4) plus 0.1% Tween-20 containing 5% BSA or milk. The membranes were incubated with primary antibodies diluted in TBST (TBS plus 0.1% Tween-20) containing 5% of either BSA or milk overnight at 4° C. Next, membranes were rinsed three times with TBST for 5 minutes each and incubated for 45 minutes at RT with HRP-linked secondary antibodies diluted in TBST containing 5% BSA/milk. Membranes were rinsed three times with TBST for 5 minutes each and specific bindings were detected by enhanced chemiluminescence (ECL) system (Amersham Bioscience) using ChemiDoc XRS gel imaging system (Bio-Rad).
# Wild type and CCM3 knock out cells were treated with either PTC209 or DMSO starting from the day after seeding, when cells were confluent. For this experiment cells were lysed for western blot and real-time analysis after 72 hours of treatment to check a long-term effect of PTC209.
# To perform these experiments, immortalized lung endothelial cells both wild type and CCM3 knock out were treated, with the same experimental strategy used for PTC209, with UNC1999 for 72 hours and subsequently lysed for western blot and real time analysis. UNC1999 was used in its specific optimal concentration, which was different to PTC209. As control DMSO was given to the cells in a volume equal to the volume of DMSO in which UNC1999 was previously dissolved to rich the optimal concentration.
# Briefly, wild type and CCM3 knock out cells were treated with either PTC209, UNC1999 or a combination of the two. PTC209 and UNC1999 were administrated at the same concentration used for the single treatment and DMSO was given as control in a volume equal to the sum of volumes of DMSO in which UNC1999 and PTC209 were previously dissolved.
# [2] = test system: EndMT markers (Klf4, Sca1 and Fsp1); settings: 72 hours
# Experimental: as §1
# (§3) RNA extraction was performed both with (A) RNeasy kits (Promega) or (B) RNAeasy Mini Kit (QIAGEN). The latter allows also the extraction of proteins from the same sample. The RNA (500 ng) was reverse transcribed with random hexamers (High Capacity cDNA Archive kits; Applied Biosystems) in a final volume of 30 uL. Reaction were made with a thermocycler (Eppendorf) 10 min at 25° C. followed by 2 hours at 37° C. cDNA (5 ng) was amplified in triplicate in a reaction volume of 15 uL using TaqMan Gene Expression Assays (Applied Biosystems) in a ABI/Prism 7900 HT using a pre PCR step of 10 min at 95° C., followed by 40 cycles of 15 seconds at 95° C. and 60 seconds at 60° C. For each sample, the expression level was determined with the comparative threshold cycle (Ct) method, and normalized to the housekeeping genes encoding 18S, glyceraldehyde-3-phosphate dehydrogenase (GAPDH) and hypoxanthine-guanine phosphoribosyltransferase (hprt1). Ct or threshold cycle, represents the PCR cycle at which an increase in reporter fluorescence above a base-line signal can first be detect.
# CCM1 knock out cells = experiment: Immunofluorescence of junction organisation (VE-cadherin, PECAM1), wild type and CCM1 knock out cells
# From the text: Also for CCM1 model, the inventors tested the effect of Bmi1 inhibition on junction organisation. The inventors repeated PTC209-treatment on CCM1 model with the same experimental conditions described before, and the inventors analysed VE-cadherin and PECAM1 expression by immunofluorescence analysis (FIG. 12) in parallel with real time analysis (FIG. 13).
# [3] = test system: Axin2, Serpin1, Id1, Hes1 and Dll4; experiment: Real-time PCR of target genes of β-catenin, TGFβ and Delta-Notch pathways, wild type and CCM3 knock out cells; settings: PTC209 72 hours
# Experimental: as §3
# To perform these experiments, wild type and CCM3 knock out cells were treated with PTC209 with the same experimental conditions described before, and subsequently lysed for gene expression analysis.
# Axin2 was checked as evidence of β-catenin pathway activation (FIG. 25A), Serpin1 and Id1 for TGFβ signalling (FIG. 25B), while Hes1 and Dll4 for Notch pathway activation (FIG. 25C).
# [4] = test system: EndMT markers (Klf4, Sca1 and Fsp1); settings: 72 hours; remark: listed apart in the source
# Experimental: as §1, §2
# [5] = wild type cells (physiological condition), CCM1 model
# [6] = CCM3 knock out cells (pathological conditions)
# [7] = CCM3 knock out cells (pathological)
# [8] = wild type cells (physiological)
smiles,measurement,setting,value
"COc1cc(Br)c(Nc2nc(-c3c(C)nc4ncccn34)cs2)c(Br)c1 [PTC209, N-(2,6-dibromo-4-methoxyphenyl)-4-(2-methylimidazo[1,2-a]pyrimidin-3-yl)thiazol-2-amine]",Klf4 protein up-regulation induced by CCM3 deletion (western blot),[1]; CCM3 knock out cells,completely rescued
same,levels of Klf4 and Sca1 protein in treated CCM3 knock out cells versus wild type cells,"[1]; CCM3 knock out cells, 1 uM PTC209",comparable with the levels expressed by wild type cells
same,"EndMT markers (Klf4, Sca1, Fsp1) protein expression (western blot)","[1]; CCM3 knock out cells, 1 uM PTC209, 5 uM UNC1999, vs DMSO",strongly downregulated; also recorded: inhibition of the upregulation
same,Klf4 protein (western blot),"[1]; wild type cells (physiological condition), CCM3 model",not affected
same,Klf4 transcript (real time analysis),[2]; CCM1 knock out cells,downregulated
same,Sca1 and Fsp1 transcripts (real time analysis),[2]; CCM1 knock out cells,downregulated
same,"EndMT markers (Klf4, Sca1, Fsp1) transcript levels (real time analysis)","[2]; CCM1 knock out cells, vs DMSO",strong inhibition
same,Klf4 transcript (real time analysis),[2]; [5],not downregulated
same,"junction organisation (VE-cadherin, PECAM1 immunostaining)",CCM1 knock out cells; CCM1 knock out cells,visible reorganisation of junctions
same,"junction organisation (VE-cadherin, PECAM1 immunostaining)","CCM1 knock out cells; wild type cells, CCM1 model",remained unchanged
same,Hes1 transcript (Notch pathway),[3]; [6],downregulated
same,Serpin1 transcript (TGFβ signalling),[3]; [6],upregulated
same,Axin2 transcript (β-catenin pathway),[3]; [7],downregulation
same,Id1 transcript (TGFβ signalling),[3]; [7],downregulation
same,Axin2 transcript (β-catenin pathway),[3]; [8],downregulation
same,Id1 transcript (TGFβ signalling),[3]; [8],downregulation
same,"EndMT markers (Klf4, Sca1, Fsp1) protein levels (western blot)","[4]; CCM1 knock out cells, vs DMSO",strong inhibition
same,Klf4 protein (western blot),[4]; [5],not downregulated
